Data on two compounds can be found in paper PMC6383986, “Fragment-Based Covalent Ligand Screening Enables Rapid Discovery of Inhibitors for the RBR E3 Ubiquitin Ligase HOIP” (Journal of the American Chemical Society, 2019).

One test deals with T1, HOIP RBR domain (Homo sapiens, UniProt Q96EP0).
T1 construct: made in house; host or cells: E. coli BL21-GOLD(DE3)
T1 sequence (Q96EP0 697-1072): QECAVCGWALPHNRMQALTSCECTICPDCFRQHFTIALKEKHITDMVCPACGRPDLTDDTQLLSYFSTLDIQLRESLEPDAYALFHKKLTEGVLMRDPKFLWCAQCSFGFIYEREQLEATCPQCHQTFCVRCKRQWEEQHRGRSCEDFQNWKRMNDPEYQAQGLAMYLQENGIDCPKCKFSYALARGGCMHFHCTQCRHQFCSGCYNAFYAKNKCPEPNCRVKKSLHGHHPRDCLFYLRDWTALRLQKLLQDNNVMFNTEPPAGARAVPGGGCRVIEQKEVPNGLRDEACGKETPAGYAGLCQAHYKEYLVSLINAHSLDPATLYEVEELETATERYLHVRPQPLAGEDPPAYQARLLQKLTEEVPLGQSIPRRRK
In words: In vitro polyubiquitination assay. Format: biochemical. The following applies: HOIP RBR preincubated with compound (200 μM) overnight; E2 UbcH7 or UbcH5c; vs DMSO. The method, then: 4.3 Polyubiquitination assay
The ubiquitination assay was essentially carried out as previously described.12 The HOIP RBR domain was pre-incubated with compounds (5) or (6), or DMSO in 50 mM HEPES, 150 mM NaCl, pH 7.5 buffer at 23 °C with gentle shaking for overnight (20-24 h). E1, E2 (UbcH7 or UbcH5c), ubiquitin, and MgCl2 were added to each vial, and aliquots of 15 µL were withdrawn to mark time zero. ATP was then added and aliquots of 15 µL were withdrawn after 5, 15, 30, and 60 min incubation. Final concentrations: E1 (1 µM), E2 (5 µM), E3 (5 µM), compounds (200 µM), DMSO (1%), ubiquitin (40 µM), MgCl2 (20 mM), ATP (10 mM); reaction volume 100 µL. The aliquots were analyzed by SDS PAGE (Figure 4A and Supplementary Figure S9) as described below (section

The target of the next test is T2, NUDT8 (Homo sapiens, UniProt Q8WV74).
T2 construct: endogenous in cells; host or cells: HEK293T
T2 sequence (Q8WV74 whole entry): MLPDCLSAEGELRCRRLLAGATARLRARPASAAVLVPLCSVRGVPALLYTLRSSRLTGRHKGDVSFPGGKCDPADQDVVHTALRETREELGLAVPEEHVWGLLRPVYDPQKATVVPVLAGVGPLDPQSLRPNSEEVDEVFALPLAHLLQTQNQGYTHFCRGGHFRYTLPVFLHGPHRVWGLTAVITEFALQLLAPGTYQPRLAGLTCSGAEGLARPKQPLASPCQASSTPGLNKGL
The test can be described thus: ABPP quantitative MS, HEK293T. Format: cell-based. The note with it: 30 μM (11a) 7 h vs DMSO, then 3 μM (15) 2 h. The method, then: (§1) control and cells treated with control compounds (11i) and (17) at 30 µM). HOIP RBR wild type […]
(§2) nm, indicating low to no labelling by (11a), and a dominant signal from the 800 channel (green).
(§3) C = HOIP RBR control (0.5 µg).
(§4) 5.2 Activity-based protein profiling – Enrichment and LC-MS
(§5) Cell culture and transfection, compound treatment, ha rvest and lysis
(§6) HEK293T cells were cultured and transfected as describ ed in section 4.8 above. MCF7 cells were seeded in 100 mm Petri dishes at 6 × 10^5 cells/dish and cultured overnight at 37 °C as described in section 4.8 above. Both cell types were treated with inhibitor (11a) (30 µM final concentration) or DMSO as described above, incubating for 7 h at 37 °C, followed by addition of clickable probe (15) (3 µM final concentration) and incubation for an additional 2 h. The cells were then harvested and lysed (50 mM Tris-HCl, pH 7.5, 1.5 mM MgCl2, 150 mM NaCl, 5% glycerol, 0.8% v/v IGEPAL-CA630, 25 mM NaF, 1 mM Na3VO4, complete protease inhibitor), and the protein concentration was determined by the BCA assay as described in section 4.7 above.
(§7) Enrichment of TCO-labelled proteins
(§8) Similar to a previously described protocol,22 tetrazine beads were generated by incubating high capacity neutravidin beads (500 µL; Thermo Scientific) with 0.1 µmol tetrazine-PEG4-biotin (Jena Bioscience) in PBS buffer over night at 4 °C, followed by blocking with 5 µL 100 mM biotin in DMSO for 30 minutes at 4 °C. The beads were washed 3× with buffer (50 mM Tris-HCl pH 7.4, 5% glycerol, 1.5 mM MgCl2, 150 mM NaCl, 1 mM Na3VO3, 5 mM NaF) supplemented with 0.4% IGEPAL CA-630 and adjusted to a 5% v/v slurry.
(§9) Lysate with a protein concentration of approx. 2 mg/mL (500 µL) were added to the TCO beads (35 µL) on a 96-well filter plate (Porvair, Dunn #240002) and incubated at 4°C for 2 h. After incubation, beads were washed using a vacuum manifold with 5 mL wash buffer 1 (WB1) (50 mM […]
(§10) (50 mM HEPES pH 8.5, 2 M urea), and 5 mL WB4 (50 mM HEPES pH 8.5). Proteins were then eluted by on bead digestion: 60 µL elution buffer (50 mM HEPES pH 8.5, 5 mM Tris-(2-carboxyethyl)phosphine, 15 mM chloroacetamide, 0.004 µg LysC/ µL (Wako chemicals), 0.004 µg trypsin/µL (Promega)) were added to the washed beads and incubated over night at room temperature. Eluates were collected by centrifugation, beads incubated with an additional 60 µL WB4, eluted and both eluates were combined and lyophilized. […]
(§11) proportional to the number of ions; this measure is referred to as ion area.24 Spectra matching to peptides were filtered according to the following criteria: mascot ion score >15, signal-to-background of the precursor ion >4, and signal -to-interference >0.5. Fold-changes were corrected for isotope purity and adjusted for interference caused by co-eluting nearly isobaric peaks.25 Protein quantification was derived from individual spectra matching to distinct peptides by using a sum-based bootstrap algorithm; 95% confidence intervals were calculated for all protein fold-changes that were quantified with more than three spectra.23 Relative protein abundance s were generated on the basis of MS1 abundances .26 Briefly, XIC peaks were matched to identified peptides. […] These values were then summed, and the mean was calculated.
(§12) In cases where fewer than 3 sequences were associated, the mean was calculated using XIC intensities from either one or two sequences.
(§13) Proteins were filtered for >1 quantified spectra matches (qusm). Residual binding was calculated […]

The next test concerns the target T3, ALDH6A1 (Homo sapiens, UniProt Q02252).
T3 construct: endogenous in cells; host or cells: HEK293T (A21); MCF7 (A27)
The test can be described thus: ABPP quantitative MS, HEK293T. Type of test: cell-based. The following applies: 30 μM (11a) 7 h vs DMSO, then 3 μM (15) 2 h. The method, then:
as §1, §2, §3, §4, §5, §6, §7, §8, §9, §10, §11, §12, §13

Test [1] has as its target T4, IRAK4 (Interleukin-1 receptor-associated kinase 4) (Homo sapiens, UniProt Q9NWZ3).
T4 construct: endogenous in cells; host or cells: HEK293T (transfected with 3×FLAG HOIP RBR only)
The test can be described thus: ABPP quantitative MS, HEK293T. Type of test: cell-based. The following applies: 30 μM (11a) 7 h vs DMSO, then 3 μM (15) 2 h. The procedure:
as §1, §2, §3, §4, §5, §6, §7, §8, §9, §10, §11, §12, §13

The next test addresses T5, TRMT61A (Homo sapiens, UniProt Q96FX7).
T5 construct: endogenous in cells; host or cells: HEK293T
The test can be described thus: ABPP quantitative MS, HEK293T. The note with it: 30 μM (11a) 7 h vs DMSO, then 3 μM (15) 2 h. Type of test: cell-based. The method, then:
as §1, §2, §3, §4, §5, §6, §7, §8, §9, §10, §11, §12, §13

Test [2] addresses T6, RNF31 (E3 ubiquitin-protein ligase RNF31) (Homo sapiens, UniProt Q96EP0).
T6 construct: expressed in transfected cells; host or cells: HEK293T, transient, modified pcDNA3.1(+)
In words: ABPP quantitative MS, HEK293T. Format: cell-based. The note with it: 30 μM (11a) 7 h vs DMSO, then 3 μM (15) 2 h. The procedure: as §1, §2, §3, §4, §5, §6, §7, §8, §9, §10, §11, §12, §13

SMILES strings stand for the structures. “Also recorded” adds a separate entry of the source.

T3 sequence (Q02252 34-535): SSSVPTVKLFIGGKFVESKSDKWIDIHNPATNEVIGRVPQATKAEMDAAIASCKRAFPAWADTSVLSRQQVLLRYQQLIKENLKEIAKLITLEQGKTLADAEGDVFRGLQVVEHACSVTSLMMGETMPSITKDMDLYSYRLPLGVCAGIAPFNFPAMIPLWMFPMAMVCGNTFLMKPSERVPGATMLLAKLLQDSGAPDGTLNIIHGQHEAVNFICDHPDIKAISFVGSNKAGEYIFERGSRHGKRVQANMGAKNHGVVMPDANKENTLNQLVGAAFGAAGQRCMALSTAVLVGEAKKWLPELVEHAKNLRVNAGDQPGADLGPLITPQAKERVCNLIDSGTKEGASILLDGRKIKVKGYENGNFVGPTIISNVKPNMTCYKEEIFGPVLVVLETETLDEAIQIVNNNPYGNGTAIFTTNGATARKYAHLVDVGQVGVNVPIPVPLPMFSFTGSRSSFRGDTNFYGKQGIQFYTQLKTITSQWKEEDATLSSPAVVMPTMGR
T4 sequence (Q9NWZ3 whole entry): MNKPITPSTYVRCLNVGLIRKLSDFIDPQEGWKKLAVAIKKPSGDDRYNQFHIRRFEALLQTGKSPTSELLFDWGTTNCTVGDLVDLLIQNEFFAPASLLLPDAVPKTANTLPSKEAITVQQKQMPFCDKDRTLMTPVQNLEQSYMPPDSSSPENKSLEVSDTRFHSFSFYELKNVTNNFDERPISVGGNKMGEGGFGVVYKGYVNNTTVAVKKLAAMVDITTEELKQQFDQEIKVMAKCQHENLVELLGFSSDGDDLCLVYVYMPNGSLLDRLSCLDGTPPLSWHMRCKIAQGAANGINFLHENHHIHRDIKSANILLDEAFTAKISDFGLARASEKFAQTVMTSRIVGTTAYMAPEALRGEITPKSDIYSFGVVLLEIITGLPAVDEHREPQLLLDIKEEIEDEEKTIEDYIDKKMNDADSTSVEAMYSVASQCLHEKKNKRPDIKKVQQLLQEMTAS
T5 sequence (Q96FX7 whole entry): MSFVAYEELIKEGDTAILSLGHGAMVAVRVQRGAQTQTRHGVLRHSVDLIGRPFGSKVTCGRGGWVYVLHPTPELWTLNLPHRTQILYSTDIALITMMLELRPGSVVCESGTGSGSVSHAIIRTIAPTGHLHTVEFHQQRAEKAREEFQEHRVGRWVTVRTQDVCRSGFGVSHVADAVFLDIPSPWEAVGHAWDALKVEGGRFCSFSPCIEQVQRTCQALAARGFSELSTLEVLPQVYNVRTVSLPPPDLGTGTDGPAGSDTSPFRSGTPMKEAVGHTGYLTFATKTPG

With `COC(=O)/C=C/CNC(=O)c1cc2c([nH]c1=O)CCC2` [Compound 5], the polyubiquitin chain formation entry at HOIP RBR domain is reported as “fully abolished chain formation; also recorded: complete inhibition of polyubiquitin chain formation”.
Regarding `COC(=O)/C=C/CNC(=O)c1cc2c([nH]c1=O)CCCC2` [Compound 11a], the “ratio: mean ratio between control and competition samples, NUDT8” value on NUDT8 is reported as -1.172 log2. At ALDH6A1, the “ratio: mean ratio between control and competition samples, ALDH6A1” value is on record as -1.278 log2. Besides, in test [1], the “ratio: mean ratio between control and competition samples, IRAK4” value is given as -1.675 log2. Moreover, on TRMT61A, the “ratio: mean ratio between control and competition samples, TRMT61A” value is listed as -1.293 log2. Moreover, in test [2], the “ratio: mean ratio between control and competition samples, RNF31” value is -2.293 log2.
